Laboratory results taken from patent US5767068A, “Pure biologically active colistin, its components and a colistin formulation for treatment of pulmonary infections” (Pathogenesis Corporation, priority 1997, dated 1998).

Experiments:
Pseudomonas aeruginosa [1] = settings: cited from earlier work
[2] = pH of freshly dissolved colimycin solutions over time; format: physicochemical; settings: 10.0, 15.0 and 20.0 mg/ml in water, all cases
Protocol: Acidic stability of the colimycin solution was determined according to Example 11. Briefly, colimycin (405 mg) was freshly dissolved in water to achieve 10.0 mg/ml, 15.0 mg/ml, and 20.0 mg/ml solutions. These values correspond to concentrations of 3.7 mg/ml, 5.6 mg/ml and 7.4 mg/ml colistin base equivalent. Solution pH was monitored continuously at various times from 1 minute to 180 minutes and pH values and times were recorded.
The pH of freshly dissolved colimycin was determined by weighing a freshly opened vial of Coly-Mycin M Parenteral, Parke-Davis, lot# 01966P, containing 405 mg into 20 ml glass screwcap scintillation vials and adding an appropriate volume of sterile irrigation water to achieve 10.0 mg/ml, 15.0 mg/ml, and 20.0 mg/ml solutions. These values correspond to concentrations of 3.7 mg/ml, 5.6 mg/ml and 7.4 mg/ml colistin base equivalent. Solution pH was then monitored continuously using a Beckman Phi-10 pH meter fitted with a Beckman Futura Plus combination electrode calibrated at pH 4.0 and 7.0 as per manufacturer's instructions prior to use. At various times from 1 minute to 180 minutes, pH values and times were recorded.

[3] = Jet nebulization (Pari LC Jet) with laser diffraction aerosol characterization; format: physicochemical; settings: Pari LC Jet nebulizer, n=3
Protocol: Colimycin was freshly dissolved in 37.5 mM NaCl at a concentration of 20 mg/ml colistin base equivalent immediately prior to nebulization. Colistin component IV sulfate was dissolved in 120 mM sodium chloride, and the pH was adjusted to 7.0 with 1 molar sodium hydroxide.
Four ml of solution to be nebulized was placed in a Pari LC Jet nebulizer fitted with a Pulmonaide Compressor (DeVilbiss Model 5650D) with an air flow rate of 4-6 liters/minute. Aerosols generated are characterized by passing through a laser diffraction particle analyzer (Malvern Mastersizer X). Each formulation was analyzed multiple times to determine reproducibility of results, which were expressed as total obscuration time, mass median average diameter, and respirable fraction.
In order to characterize colistin aerosols, and to investigate differences between the colimycin and colistin aerosol formulations, comparisons of the aerosolization of 150 mM (isotonic) NaCl alone, 20 mg/ml colistin component IV sulfate in 120 mM or 20 mg/ml colimycin in […] NaCl were made. Results are shown in FIG. 18, which is a comparison of the times required for aerosolization of 4 mL of the three solutions. The two drug solutions were analyzed three times, and saline was analyzed four times. Bars show standard deviations of measurements.
Colimycin was freshly dissolved in 37.5 mM […] NaCl at a concentration of 20 mg (colistin base equivalents)/ml solution immediately prior to nebulization. […]
Four ml of solution to be nebulized was placed in a Pari LC Jet nebulizer fitted with a Pulmonaide Compressor, DeVilbiss Model 5650D, with an air flow rate of 4-6 liters/minute. […] Each formulation was analyzed multiple times to determine reproducibility of results, which were expressed as total obscuration time, mass median particle diameter, and respirable fraction.
Mass median particle diameters were expressed as average ±standard deviation (n) for aerosols.
Average respirable fractions were calculated as average percentage of particles ranging from 1 micron to 6 microns in diameter within the aerosol over time.

[4] = in situ in the recipient patient body; cited from earlier work
[5] = 2,000,000 units nebulized; cited from earlier work
Pseudomonas aeruginosa [6] = assay: Time kill kinetic study of bactericidal activity; format: cell-based
Protocol: Comparison of anti-Pseudomonas aeruginosa activities of colimycin and colistin hydrochloride was performed using time kill kinetic studies as described in Antimicrobial Susceptibility Testing, Section 5.16.: Tests to assess bactericidal activity, Clinical Microbiology Procedure Handbook, Ed. Henry D. Isenberg, ASM, Washington, DC (1992). The exact procedure is described in Example 14.
Briefly, tests were similar to those used for determining MICs, except that the final test volume was larger (10 mL) to allow sampling at various time points. Parenteral colimycin was freshly diluted immediately before testing. Cultures were incubated at 37° C. At initial set-up and at various time-points, cultures were plated, with or without further dilution, onto sheep blood agar plates. Plates were incubated for 18-24 hours, and the number of CFU/mL was determined and plotted to determine the percentage of surviving organisms and the time required to achieve 99.9% killing. Results are seen in FIG. 15.
In this study, Pseudomonas aeruginosa organisms were exposed to varying concentrations of colistin or colimycin as indicated in FIG. 15. Concentrations of colimycin were between 8-64 μg/ml. Concentrations of colistin component IV hydrochloride were 0.25 and 0.5 μg/ml, that is 32-256 (for 0.25 μg/ml) and 16-128 (for 0.5 μg/ml) times lower that concentrations of colimycin. Colony-forming unit (CFU) per ml were determined and plotted against drug exposure time in hours.
Time kill kinetic studies were performed as described in (Antimicrobial Susceptibility Testing, Section 5.16. Tests to assess bactericidal activity, in Clinical Microbiology Procedure Handbook (supra).
Tests were set in the same way used for determining MICs (Example 13), except that the final test volume was larger (10 mL) to allow sampling at various time points. Cultures were incubated at 37° C. At initial set-up and at various desired time-points, cultures were sampled and plated (with or without further dilution) onto sheep blood agar plates. Plates were incubated for 18-24 hours, and the number of CFU/mL was determined and plotted to determine the percentage of surviving organisms and the time required to achieve 99.9% killing.

[7] = systemic intravenous, acute pulmonary exacerbation; cited from earlier work
[8] = 20 mg/ml, average±standard deviation

Row | Compound | strains of Pseudomonas aeruginosa sensitive to treatment (Pseudomonas aeruginosa [1]) | pH of solution within 3 minutes [2] | average respirable fraction (particles from 1 micron to 6 microns) [3, 8] | mass median particle diameter of the aerosol [3, 8] | aerosolization time ([3]; 4 mL of 20 mg/ml solution, mean) | drug converted to colistin in an hour [4] | patients reporting chest tightness (bronchoconstriction response) [5] | eradication of Pseudomonas aeruginosa organism (Pseudomonas aeruginosa [6]; 8 μg/mL, 4 hours of testing) | killing of test organism (Pseudomonas aeruginosa [6]; 16 μg/mL, at 3 hours) | time at which over 5 logs killing was shown (Pseudomonas aeruginosa [6]; 64 μg/mL) | concentration required for similar level of killing (over 5 logs within 2 hours) (Pseudomonas aeruginosa [6]; freshly dissolved) | cases with nephrotoxicity symptoms [7] | cases with neurotoxicity symptoms [7]
1 | NC[C@H]1O[C@H](O[C@H]2[C@H](O)[C@@H](O[C@H]3O[C@H](CO)[C@@H](O)[C@H](N)[C@H]3O)[C@H](N)C[C@@H]2N)[C@H](N)C[C@@H]1O [tobramycin] | about 90% |  |  |  |  |  |  |  |  |  |  |  | 
2 | colimycin |  | > 7.5 | 58.77±2.03 percentage | 4.11±0.29 microns | 10.53 min | ~3% | approximately 65% | did not, even at 4 hours of testing, eradicate | over 5 logs | 1.5 hours | 32 μg/ml | about 5% | about 29%
